What was measured:
Turbidity measurement = assay type: physicochemical
Protocol: The turbidity of various compounds was measured. The method is as follows. […] Curcumin was cloudy while GO-Y199 was clear. The solubility was measured with a turbidimeter (WZB-170 Portable Turbidimeter available from REX). The turbidity of the compound was corrected for concentration.
Subsequently, GO-Y206 and curcumin were adjusted to final concentrations of 1.25 μM and 5.00 μM, respectively, and their turbidities were measured.

[1] = test system: breast cancer cell line HCC38; assay: Cell growth inhibitory activity, HCC38; assay type: cell-based
Protocol: [The source words this procedure for another cell line and reports this cell line under the same test.] (§1) The cell growth inhibitory activity against a colorectal cancer cell line HCT116 was measured. As an index of cell growth inhibitory activity, a concentration at which cell growth was inhibited by 50% as compared with a control (IC50) was used. The method is as follows. HCT116 was added to a 6-well plate by 5×10^4, compounds having various concentrations were added after 24 hours, and the number of cells was counted after 72 hours of culture. As the control, DMSO was used in an amount equal to the amount added in accordance with the addition concentration of the highest-concentration compound. The number of cells at each concentration relative to the control was expressed as a percentage.
(§2) The method is as described above.

[2] = test system: breast cancer cell line HCC70; assay: Cell growth inhibitory activity, HCC70; assay type: cell-based
Protocol: [The source words this procedure for another cell line and reports this cell line under the same test.] as §1, §2

[3] = test system: colorectal cancer cell line HT29; assay: Cell growth inhibitory activity, HT29; assay type: cell-based; settings: Table 4; 72 hours
[4] = test system: pancreatic cancer cell line ASPC-1; assay: Cell growth inhibitory activity, ASPC-1; assay type: cell-based; settings: Table 7
Protocol: [The source words this procedure for another cell line and reports this cell line under the same test.] as §1, §2

HCT116 = assay: Cytocidal effect, HCT116; assay type: cell-based; settings: 2 μM and 5 μM, cells counted after 48 and 72 hours
Protocol: The method is as follows. Each cell line was added to 6-well plate by 5×10^4, 2 μM and 5 μM of GO-Y199 were added after 24 hours, and the number of cells was counted after 48 hours and 72 hours.

[5] = test system: apoptosis-related protein; assay: Apoptosis-related protein, M30 Apotosense ELISA; assay type: cell-based; settings: control 360 U/L
Protocol: The influence of GO-Y199 on NF-kB (p65) was investigated. The method is as follows. 3×10^6 cells of the HCT116 cell line were added to a 10-cm plate, 2 μM of GO-Y199 was added after 24 hours, the cells were collected after 24 hours, embedded in iPGell (GenOStaff), and fixed in formalin, paraffin blocks were then prepared, and immuno-histochemistry was performed with an anti-NF-kB (p65) antibody. In addition, 2 μM and 5 μM of GO-Y199 were added, lysates were collected after 24 hours, and an expression level of NF-kB (p65) was analyzed using an ELISA-plate (NF-kBp65 (pS536) SimpleStep-ELISA-kit, Abcam). An amount of protein was corrected by the absorbance of A 280 nm. The upper part of FIG. 14 indicates photographs of the control group and the GO-Y199 (2 μM)-added group after 24 hours. The lower part of FIG. 14 indicates results of the t-test of these groups after 24 hours. FIG. 15 indicates the comparison results of the NF-kB inhibitory effect of GO-Y199 (2 μM, 5 μM)-added groups with respect to the control group.
The influence of GO-Y199 on Caspase 3 was investigated. The method is as described above. Immunohistochemistry was performed with an anti-Caspase 3 antibody. Quantification of apoptosis-related protein was performed using M30 Apotosense ELISA (PEVIVA). The upper part of FIG. 20 indicates photographs of the control group and the GO-Y199 (2 μM)-added group after 24 hours. […]

[6] = test system: FOXP3-positive regulatory T cells; assay: Regulatory T cell inhibitory activity; assay type: cell-based, mouse; settings: 0.3 μM; control 12.8%
Protocol: Naive CD4^+ T cells were collected from the spleen of a mouse using a CD4^+CD62L^hi T Cell Isolation Kit (Miltenyi Biotec). 0.5×10^6 cells/mL of the collected T cells were added to a RPMI 1640 medium to which penicillin/streptomycin (5,000 units/mL), 10% fetal bovine serum, and 50 μM of 2-mercaptoethanol were added. Subsequently, 1 μg/mL of anti-CD3 antibody (eBioscience) was added to the medium, and 1 μg/ml of anti-CD28 antibody (eBioscience) was further added thereto. The medium was then cultured at 37° C. for 3 days. Then, TGF-β1 (2 ng/mL) was added to the medium and cultured for 24 hours. After that, a FOXP3 Staining Buffer Kit (eBioscience) was used to fix the cells and treat cell membranes, and FOXP3 in the nuclei was stained. The stained cells were measured using a BD LSRFortessa™ (BD Bioscience) flow cytometer, and the obtained data was analyzed with FlowJo (Tree-Star version).

MSTO-211H cells = assay: Antitumor effect on malignant mesothelioma cells, animal model; assay type: in vivo, nude mice
Protocol: An animal model was used to investigate the antitumor effect of GO-Y199 on malignant mesothelioma cells. The method is as follows. 2.8×10^6 MSTO-211H cells were intraperitoneally transplanted into each of 5 nude mice. From Day 5, 43 μL of 100 mM GO-Y199 in DMSO was diluted to 500 μL with PBS and intraperitoneally administered to the mice (equivalent to 5 mg of GO-Y199). As a control group, a DMSO-PBS solution having the equivalent concentration was intraperitoneally administered to each of four nude mice to which MSTO-211H cells were intraperitoneally transplanted in the same manner. The administration was performed 5 times in total at intervals of 5 days. After 30 days, the mice were sacrificed, necropsied, and analyzed.

For `COCOc1cc(/C=C/C(=O)CC(SCCOCCOCCOCCOCc2cn([C@@H]3O[C@H](CO)[C@@H](O[C@@H]4O[C@H](CO)[C@H](O)[C@H](O)[C@H]4O)[C@H](O)[C@H]3O)nn2)c2cc(OCOC)cc(OCOC)c2)cc(OCOC)c1` (some centres unmarked) [GO-Y199], the Turbidity/μm (Turbidity measurement; Table 1, average turbidity corrected for final concentration (1.7-170 μm, per compound)) was 0.00041 NTU/μM, the “Relative Value (turbidity)” value (Turbidity measurement; Table 1, turbidity/μm relative to curcumin = 1) was 0.0014 and the “Turbidity (Relative Value)” value (Turbidity measurement; Table 3, relative to curcumin = 1) was 0.0014. The “Ave Turbidity (NTU)” value (Turbidity measurement; final conc. 170 μm in DDW) was 0.07 ± 0.05 NTU, the appearance of solution (Turbidity measurement; final concentration 50 μM in distilled water or DMEM with 10% fetal bovine serum, from DMSO) was “clear” and the IC50 ([1]; Table 4, 72 hours) was 1050 nM. For the same compound, the “GO-Y199 vs GO-Y030 (IC50 comparison), HCC38” value ([1]; Table 5, ratio of IC50) was 0.58, the IC50 ([2]; Table 4, 72 hours) was 540 nM and the “GO-Y199 vs GO-Y030 (IC50 comparison), HCC70” value ([2]; Table 5, ratio of IC50) was 0.24. For the same compound, the IC50 [3] was 750 nM, the IC50 [4] was 1.03 µM and the cytocidal effect (HCT116) was “cytocidal effect”. For the same compound, the “apoptosis-related protein activity (M30)” value ([5]; 2 μM) was 1,830 U/L, the “apoptosis-related protein activity (M30)” value ([5]; 5 μM) was 2,050 U/L and the “induction ratio of FOXP3-positive regulatory T cells” value [6] was 2.22%. For the same compound, the “animals with microscopic peritoneal disseminated lesions” value (MSTO-211H cells; 5 mg i.p., 5 times at intervals of 5 days, after 30 days, control 75%) was 80%, the “size (maximum diameter) of disseminated nodule” value (MSTO-211H cells; 5 mg i.p., 5 times, after 30 days, control 6 to 13 mm) was 5 mm and the “animals with disseminated nodule of maximum diameter exceeding 5 mm” value (MSTO-211H cells; 5 mg i.p., 5 times, after 30 days, control 100%) was 20%. The “pathologic analysis, inside of the disseminated nodule” value (MSTO-211H cells; control filled with tumor cells) was “necrotic” and the “tumor formation at the puncture site” value (MSTO-211H cells; not observed in control group) was “one animal”.
